One data set can be described thus: Release into ethanol. Format: physicochemical. As to conditions: for Encapsulated dye released: ethanol. The protocol: (§1) The sample was suspended in 50/50 v/v ethanol/water (10 mL) with stirring. At each time point, the sample was centrifuged (10,000 rpm, 10 minutes) and the supernatant removed. Fresh solvent was then added and the solid resuspended. In comparison, the release of dye from a similar sample into 100% ethanol solution is very rapid, with about 40% of the dye released after several minutes.
(§2) The sample was suspended in 50/50 v/v ethanol/water (10 mL) with stirring. At each time point, the sample was centrifuged (10,000 rpm, 10 minutes) and the supernatant removed. Fresh solvent was then added and the solid resuspended. In contrast to the slow release into ethanol/water, the release into ethanol is very rapid, with approximately 70% of the encapsulated dye released within one hour.
The samples (53.5 and 49.2 mg respectively) were suspended in ethanol (100 mL) with stirring. At each time point, 1.5 mL was extracted from both samples and centrifuged to isolate the solid, which was then returned to the solution with 1 mL of fresh ethanol. The extracted 1.5 mL was analysed by UV/Vis (absorbance at 536 nm), to determine the concentration of sudan red dye released into the supernatant. The second sample released dye more quickly than the first, but by 100 minutes, both samples had released >90% of the encapsulated sudan red dye.

Data set [1] is described as follows: Release into sodium hydroxide solution at pH=12. Format: physicochemical. As to conditions: Example 3, after 27 days, both samples (phenylsiloxane and vinylsiloxane). The protocol: The rate of release of diuron into sodium hydroxide solution at pH=12 was measured over a period of one month. Analysing the extent of release is somewhat problematic due to the low solubility of diuron in water. In order to determine the release characteristics, diuron-doped particles (about […]) were suspended in NaOH solution (0.01 mol dm^−3, 50 mL) and stirred. At one-week intervals, the solution was centrifuged and the supernatant removed. The diuron-doped particles were then resuspended in a fresh solution of NaOH (0.01 mol dm^−3, 50 mL) and stirred. The removed supernatant was shaken with octanol (10 mL) in a separating flask to extract dissolved diuron. This was repeated twice, and the resulting approximately 30 mL organic fraction was reserved for diuron analysis by HPLC. The amount of diuron released after 27 days was about 5% (of the total encapsulated) for both samples. The amount released was less than expected compared with the dissolution results at pH=12. This could reflect an incomplete extraction of diuron from the aqueous phase during the process of shaking with octanol.

A short description of data set [2]: Integrity of retinol after encapsulation (UV/Visible spectra, leaching into ethanol). Format: physicochemical. From the text:
The UV/Visible spectra of the both retinol-doped and undoped phenylsiloxane particles dispersed in PTFE powder (10 wt %), were collected using a diffuse reflectance accessory. […] The bandshift from 325 nm in ethanol solution to 335 nm in the solid is due to difference of environment experienced by the retinol molecule. […] This is likely to be due to exposure to low pH (=1.0) during the hydrolysis of TMOS.

A short description of data set [3]: Release into 50/50 v/v ethanol/water. The following applies: phenylsiloxane particles. Format: physicochemical. On the procedure: Release of retinol from the particles into 50:50 (v/v) ethanol:water solution was measured over a period of 11 days. Due to decomposition of retinol released into the solution, the supernatant was refreshed at each time point, and the release measured using UV/Vis spectroscopy (peak at 325 nm). Approximately 11% of the encapsulated retinol was released after one day, followed by slower release thereafter.
as §1, §2

For data set [4] the following is noted: silica shell capsules loaded by post impregnation; after four hours; cited from earlier work.

The values below come from US9017643B2, “Particles comprising a releasable dopant therein” (Australian Nuclear Science and Technology Organisation, priority 2005, dated 2015).

For `CCCCNc1ccc(NCCCC)c2c1C(=O)c1ccccc1C2=O` [Solvent blue 35], the Dye released result in the data set “Release into ethanol” (similar sample to Example 5, 100% ethanol, after several minutes) is “about 40%”.
Turning to `CN(C)C(=O)Nc1ccc(Cl)c(Cl)c1` [diuron], in data set [1], the “Amount released (of the total encapsulated)” value is recorded as “about 5%”.
With `C=C(C)[C@H]1CC=C(C)CC1` [limonene], the “Weight removed from the solid on leaching in ethanol” value in “Release into ethanol” (15 ml limonene: 30 ml PTMS, HPLC) is on record as “about 3%”.
In the case of `CC1=C(/C=C/C(C)=C/C=C/C(C)=C/CO)C(C)(C)CCC1` [retinol], the Integrity after encapsulation result in data set [2] (phenylsiloxane particles, absorption peak at 325 nm on release into ethanol) was “has not been damaged”; in data set [2] (silica particles made by double emulsion process with TMOS, no peak at 325 nm), “has been degraded”. Moreover, the Encapsulated dopant released entry in data set [3] (Example 1, 50:50 (v/v) ethanol:water, after one day) is listed as “Approximately 11%”.
As for `C1=Cc2nc1c(-c1ccccc1)c1ccc([nH]1)c(-c1ccccc1)c1nc(c(-c3ccccc3)c3ccc([nH]3)c2-c2ccccc2)C=C1` [tetraphenyl porphyrin], in data set [4], the “Porphyrin leached from the particles” value is on record as 60%.
As for Sudan red, the “Release (in words)” value in data set [3] (Example 6, 50/50 v/v ethanol/water) was “slow release”. For the same molecule, the Encapsulated dye released result in “Release into ethanol” (Example 6, phenylsiloxane particles, within one hour) is “approximately 70%”; in the data set “Release into ethanol” (Example 7, vinylsiloxane particles, by 100 minutes, both samples), over 90%.
